This is an account of results in ChEMBL document CHEMBL1201862, “PubChem BioAssay data set” (2004).

Some test systems named below: OVCAR-4; CCRF-CEM; SK-OV-3; UACC-62; SF-268; SF-539; RPMI-8226; DLD-1; HCT-15; T47D; SK-MEL-5; HT-29; MCF7; UO-31; SF-295; DU-145; K562; SR; HCC 2998; HOP-92.
Common to all, as to assay: NCI-60 cell line screen, 48 h

SMILES strings stand for the structures.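 The compound was tested at five concentrations on cells cultured in 96-well plates, with a 48-hour exposure period. At the GI50, growth is halved.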 The source made the active and inactive calls. Cut-off read from the data, not from the text of the source: active = GI50 up to about 1.1 µM and inactive = higher.

For the compound `CC[N+]1(C)CCC(O)(c2ccc(OC)cc2)C(C(=O)c2ccc(OC)cc2)C1` (stereo not drawn), the GI50 is 22 µM (inactive) with OVCAR-4; 2.02 µM (inactive) with CCRF-CEM; 18 µM (inactive) with SK-OV-3; 18.8 µM (inactive) in the assay on UACC-62; 21.2 µM (inactive) in the assay with SF-268; 17.4 µM (inactive) in the assay on SF-539. The GI50 in the assay with RPMI-8226 is 1.91 µM (inactive); with DLD-1, 2.88 µM (inactive); with HCT-15, 10.2 µM; in the assay with T47D it was 13.4 µM (inactive); in the assay on SK-MEL-5 it was 15.4 µM (inactive); in the assay on HT-29, 7.03 µM (inactive). For the same compound, the GI50 in the assay with MCF7 is 4.4 µM (inactive); in the assay with UO-31, 18.7 µM (inactive); with SF-295 it was 20 µM (inactive); with DU-145, 15.9 µM (inactive); in the assay on K562, 2.25 µM (inactive); in the assay with SR it was 2.34 µM (inactive). Moreover, the GI50 was 19.6 µM (inactive) in the assay on HCC 2998 and 2.63 µM (inactive) in the assay on HOP-92.

As for `Nc1ccn(C2OC(CO)C(O)C2O)c(=O)n1` (stereo not drawn), the GI50 is 457 µM (inactive) with OVCAR-4; 0.0527 µM (active) with CCRF-CEM; 198 µM (inactive) with SK-OV-3; 1.08 µM (active) in the assay with UACC-62; 3.15 µM (inactive) in the assay on SF-268; 30.8 µM (inactive) in the assay on SF-539. Moreover, the GI50 was 337 µM (inactive) in the assay on RPMI-8226; 481 µM (inactive) with DLD-1; 73.5 µM in the assay with HCT-15; 330 µM (inactive) in the assay with T47D; 19.8 µM (inactive) with SK-MEL-5; 112 µM (inactive) in the assay on HT-29. For the same compound, the GI50 was 0.156 µM (active) in the assay on MCF7; 6.15 µM (inactive) in the assay on UO-31; 12.8 µM (inactive) in the assay on SF-295; 1.74 µM (inactive) in the assay on DU-145; 14.6 µM (inactive) in the assay on K562; 0.23 µM (active) in the assay with SR. The GI50 is 107 µM (inactive) in the assay on HCC 2998 and 9.55 µM (inactive) in the assay with HOP-92.

`Cc1ccc(C)c(N2C(=O)C(=O)C(c3nc4ccccc4o3)/C(=N\NC(=O)c3ccccc3O)C2=O)c1` (stereo not drawn): the GI50 in the assay with OVCAR-4 was 11.7 µM (inactive); with CCRF-CEM, 4.09 µM (inactive); in the assay on SK-OV-3, 87.1 µM (inactive); with UACC-62 it was 5.68 µM (inactive); in the assay with SF-268, 12.2 µM (inactive); with SF-539 it was 19.1 µM (inactive). For the same compound, the GI50 was 37.6 µM (inactive) with RPMI-8226; 28.9 µM (inactive) with DLD-1; 18 µM in the assay with HCT-15; 38.5 µM (inactive) in the assay on SK-MEL-5; 32.1 µM (inactive) with HT-29; 16.3 µM (inactive) in the assay with UO-31. The GI50 with SF-295 was 56.2 µM (inactive); in the assay with K562, 16.4 µM (inactive); in the assay with SR it was 30.1 µM (inactive); with HCC 2998, 67.3 µM (inactive); in the assay on HOP-92, 41.7 µM (inactive).

Consider `CCN(CC)CCCNC(=O)C1COc2cc(-c3cc(=O)c4ccccc4o3)ccc2O1` (stereo not drawn), for which the GI50 in the assay on OVCAR-4 is 72.6 µM (inactive); in the assay with CCRF-CEM, 43.8 µM (inactive); in the assay with SK-OV-3, > 100 µM (inactive); in the assay on UACC-62, 45.9 µM (inactive); with SF-268, 42.9 µM (inactive); in the assay on SF-539 it was 19.5 µM (inactive). Also, the GI50 with RPMI-8226 was > 100 µM (inactive); in the assay with DLD-1, 65.3 µM (inactive); in the assay with HCT-15, 53 µM; with SK-MEL-5 it was 19.7 µM (inactive); in the assay on HT-29, 41.7 µM (inactive); in the assay with UO-31, 27.4 µM (inactive). The GI50 with SF-295 is 96.8 µM (inactive); with K562, 36.6 µM (inactive); in the assay on SR it was 19.9 µM (inactive); in the assay with HCC 2998, 42.2 µM (inactive); in the assay with HOP-92, > 100 µM (inactive).

As for `CCOc1ccc2nc(NC(=O)C(=O)C(C(=O)c3ccccc3-c3ccccc3)C3OC(=O)c4ccccc43)sc2c1` (stereo not drawn), the GI50 is 35.2 µM (inactive) in the assay on OVCAR-4; 21.1 µM (inactive) in the assay with CCRF-CEM; 25.9 µM (inactive) in the assay on SK-OV-3; 16.4 µM (inactive) with UACC-62; 19.8 µM (inactive) in the assay with SF-268; 8.32 µM (inactive) in the assay with SF-539. For the same compound, the GI50 with RPMI-8226 is 12.2 µM (inactive); in the assay on DLD-1, 29.6 µM (inactive); with HCT-15, 22.4 µM; in the assay on T47D, 13.9 µM (inactive); in the assay on SK-MEL-5, 16.2 µM (inactive); in the assay on HT-29, 19.4 µM (inactive). In addition, the GI50 in the assay on MCF7 is 21.2 µM (inactive); in the assay with UO-31, 22.4 µM (inactive); in the assay with SF-295, 21.6 µM (inactive); in the assay on DU-145, 21.9 µM (inactive); in the assay on K562 it was 22.3 µM (inactive); in the assay on SR, 9.79 µM (inactive). Besides, the GI50 with HCC 2998 is 18.5 µM (inactive); in the assay with HOP-92, 17.5 µM (inactive).

Take `O=C1OC(c2ccccc2)(c2ccccc2)c2ccc3ccc(F)cc3c21`: the GI50 is > 100 µM (inactive) with OVCAR-4; 31.3 µM (inactive) with CCRF-CEM; > 100 µM (inactive) in the assay with SK-OV-3; 26.9 µM (inactive) in the assay with UACC-62; > 100 µM (inactive) in the assay on SF-268; > 100 µM (inactive) in the assay with SF-539. The GI50 with RPMI-8226 was > 100 µM (inactive); in the assay with DLD-1 it was > 100 µM (inactive); in the assay with HCT-15, 35.5 µM; in the assay with SK-MEL-5, 20 µM (inactive); in the assay on HT-29, 13.6 µM (inactive); in the assay with UO-31 it was 79.4 µM (inactive). The GI50 with SF-295 was 13 µM (inactive); in the assay with K562, 6.28 µM (inactive); in the assay on SR, 10.7 µM (inactive); in the assay with HCC 2998 it was 37.2 µM (inactive); in the assay with HOP-92, 2.66 µM (inactive).

For `NCCCNCCSP(=O)(O)O` [AMIFOSTINE], the GI50 is > 635 µM (inactive) in the assay on OVCAR-4; 512 µM (inactive) in the assay with CCRF-CEM; > 750 µM (inactive) in the assay on SK-OV-3; > 710 µM (inactive) in the assay with UACC-62; > 750 µM (inactive) with SF-268; > 750 µM (inactive) in the assay on SF-539. The GI50 in the assay on RPMI-8226 is > 452 µM (inactive); in the assay with DLD-1, > 750 µM (inactive); in the assay on HCT-15, above 274 µM; in the assay on SK-MEL-5, > 750 µM (inactive); with HT-29, > 750 µM (inactive); in the assay on MCF7, > 750 µM (inactive). For the same compound, the GI50 was 535 µM (inactive) in the assay with UO-31; > 750 µM (inactive) in the assay with SF-295; > 750 µM (inactive) in the assay on K562; > 733 µM (inactive) in the assay on HCC 2998; > 750 µM (inactive) in the assay with HOP-92.
